Here are results for three molecules from patent US20230263825A1, “ANTI-CANCER ACTIVITY OF PERBORATE SALTS” (priority 2020, published 2023).

≈ marks a conversion by molar mass, not a printed value.

Experiment [1] concerns PSN-1 (a pancreatic adenocarcinoma cell line). Description: MTS cytotoxicity assay, single agents and combinations. The experiment is classed as cell-based. The following applies: Homo sapiens, PSN1, PSN-1, chemotherapeutic agent alone; read-out: EC50 concentration. How it is done: (§1) An MTS reduction (MTS (3-(4,5-dimethylthiazol-2-yl)-5-(3-carboxymethoxyphenyl)-2-(4-sulfophenyl)-2H-tetrazolium) assay) was conducted to analyze the cytotoxic effect of sodium perborate tetrahydrate on lung, chordoma and pancreatic cells and normal cells. In this method, cell viability is determined via the activity of mitochondrial dehydrogenase enzyme, which reduces the tetrazolium dye MTS to its […] formazan (absorbance maximum of 490 nm in PBS).
(§2) Cells were counted and seeded in 96-well culture dishes. […] The positive control comprised 20% Dimethyl Sulfoxide and the negative control comprised complete growth media. Seeding densities were as follows: DMS114: 20.000 cells/well; MRC5: 5.000 cells/well; CH22: 2.000 cells/well; JHC7, UM-Chor1, MUG-Chor1, UCH1 and NPH: 5.000 cells/well; PSN1: 10.000 cells/well; BxPC3 and ASPC: 7.500 cells/well. The effect of sodium perborate tetrahydrate on cell viability was measured as follows. The cell culture medium was discarded and 100 μl of MTS solution (10% glucose solution and 1% MTS-PMS solution in PBS) was added into each well. After 1 hour incubation in a humidified incubator, an absorbance reading was taken to determine mitochondrial dehydrogenase activity and cell survival was calculated relative to the negative control.
Background: Tetrazolium dyes change colour on reduction, which living cells bring about.

For experiment [2], the system named is DMS114 cells (small cell lung cancer cells). Description: MTS cytotoxicity assay. It counts as cell-based. Particulars: DMS114. How it is done:
as §1, §2

For `O=c1[nH]cc(F)c(=O)[nH]1` [5-Fluorouracil, reference compound], the EC50 in experiment [1] stood at 13 µM.
In the case of `OB(O)O` [boric acid, reference compound], the EC50 in experiment [2] (Homo sapiens, DMS-114, read-out: EC50 (dose that kills 50% of cells)) was found to be 1000 µg/mL (≈ 16.2 mM).
With “sodium pentaborate pentahydrate [reference compound]”, in experiment [2], the “EC50 (dose that kills 50% of cells)” value was 1,250 μg/mL.
